Experimental data taken from US20240261267A1, “METHODS FOR TREATING MULTIPLE SCLEROSIS” (Vanda Pharmaceuticals Inc., priority 2021, published 2024).

Legend:
primary mouse OPCs = test: differentiation assay, immunocytochemical staining for O4 and MBP; format: cell-based; settings: for MBP expression / O4 expression: normalized to DAPI and negative control
Procedure: The effects of ponesimod, a selective S1P1 receptor agonist, and A971432, a selective S1P5 receptor agonist, on oligodendrocyte precursor cell (OPC) migration and differentiation were evaluated. Nine concentrations were tested (logarithmic dilutions ranging from 0.3 nM to 3000 nM, n=6 per concentration). Fingolimod phosphate (P-FTY720, 3000 nM, n=6) was included as a positive control, 0.1% DMSO was included (min.one/plate) as a negative control. Primary mouse OPCs were harvested on postnatal day 0 or 1 and mixed glia cultures were maintained for 14 days. Primary OPCs were then purified using the shake-off method, and used for either a migration assay, or a differentiation assay, as detailed below. To harvest primary mouse OPCs, cortices are isolated from mouse pups on postnatal day 0 or 1 and placed in ice-cold Dulbecco's Modified Eagle Medium (DMEM) (Sigma Aldrich, Overijse, BE). The cortices are homogenized and centrifuged for 5 minutes at 300 G. The supernatant is removed, and a papain solution is added for 30 minutes (125 uL DMEM solution per brain containing 20 units/ml papain and 40 μg/ml DNase, at 37 degrees). Digestion is inactivated by adding 9 ml cold DMEM. The solution is then centrifuged for 5 minutes at […]. The supernatant is carefully removed, and the pellet is resuspended in 2-5 ml culture medium (DMEM with 10% fetal calf serum (Biowest, Nuaillé, FR) and 1% pen/strep (Sigma Aldrich, Overijse, BE)). […] Cell suspension is divided over PLL (Sigma Aldrich, Overijse, BE)-coated flasks (2 brains per flask) and DMEM is added to a final volume of 10 ml. DMEM is replaced on day 4, 7, and 11. On day 7 and 11, insulin (Sigma Aldrich, Overijse, BE) is added to the medium (5μg/ml). On day 14, OPCs are separated from astrocytes by the shake-off method: flasks are placed on a shaker for 45 minutes at 75 rpm (37 degrees). The medium is then aspirated and discarded, and 10 ml fresh culture medium is added. Flasks are then returned to the shaker for 16-18 hours shaking at 280 rpm. Next, the medium is isolated, and this cell suspension is placed in a plastic petri dish and incubated for 25 minutes. The medium, which contains the OPCs, is then collected and centrifuged for 5 minutes at 300 G. Cells are then resuspended in SATO differentiation medium containing 2% horse serum, 2% B-27, 50 U/ml P/S, 2.4 μl/ml transferrin, 1.04 μl/ml L-thyroxine, 1 μl/ml putrescin, 1 μl/ml progesterone, 1 μl/ml TIT, 0.74 μl/ml sodium selenite and 0.5 μl/ml insulin (all from Sigma-Aldrich, Overijse, BE). […] After shake-off, cells are reset for their differentiation status: one hour after plating, cells are treated with platelet-derived growth factor (PDGF, 10 ng/ml, Peprotech EC Ltd, London, UK) and fibroblast growth factor (fgf, 10 ng/ml, Peprotech EC Ltd, London, UK). Twenty-four hours after plating, cells are treated again with fgf (10 ng/ml). 150,000 cells are plated onto glass coverslips in 24-well plates. […] Aspecific binding was blocked for 30 minutes with 1% bovine serum albumin (BSA) in 0.1% PBS-T, followed by incubation with primary antibodies (O4:R&D systems, Minneapolis, USA, MBP:Merck, Overijse, BE) for four hours at room temperature. After three washing steps with PBS (Lonza group, Bornem, BE), cells are incubated with Invitrogen Alexa Fluor 488 (Alexa 488) or Invitrogen Alexa Fluor 555 (Alexa 555) conjugated secondary antibody for one hour (Life technologies, Carlsbad, USA). […] Sigma-Aldrich, Overijse, […]). Coverslips are mounted with Dako mounting medium (Dako, Carpinteria, USA) and analyzed using a fluorescence microscope (Leica DM2000 LED). Images are quantified using Fiji, ImageJ software. Ponesimod and […] effect on primary mouse OPC differentiation using immunocytochemical staining for O4 and MBP, markers of early and late differentiation stages, respectively, was measured. Fingolimod phosphate, which served as a positive control in the migration assay, was included as well, 0.1% DMSO was included as a negative control. […]

MS patients = test: Phase III OPTIMUM study, efficacy outcomes; format: in vivo, human; settings: ponesimod 20 mg compared with teriflunomide 14 mg
[1] = system: adult subjects with relapsing MS; test: Phase III OPTIMUM study, safety and treatment discontinuation
Procedure: A prospective, multicenter, randomized, double-blind, active controlled, parallel-group, phase III, superiority study (Phase III OPTIMUM study) was conducted.
Subjects had active disease evidenced by one or more MS attacks with onset within the period of 12 to 1 months prior to baseline EDSS assessment, or by two or more MS attacks with onset within the 24 to 1 months prior to baseline EDSS assessment, or with one or more gadolinium-enhancing (Gd+) lesion(s) of the brain on an MRI performed within 6 months prior to baseline EDSS assessment. Enrolled subjects were ambulatory with an EDSS score of up to 5.5 inclusive. The subjects were treatment-naïve (i.e., no MS disease-modifying therapy received at any time in the past) or previously treated with interferon (IFN) β-1a, IFN β-1b, glatiramer acetate, dimethyl fumarate, or natalizumab.
The treatment period consisted of an up-titration period (from Day 1 to 14) and a maintenance period (Day 15 until EOT).
To reduce the first-dose effect of ponesimod, an up-titration scheme was implemented from Day 1 to Day 14: • Days 1 and 2; 2 mg. • Days 3 and 4; 3 mg. • Days 5 and 6; 4 mg. • Day 7; 5 mg. • Day 8; 6 mg. • Day 9; 7 mg. • Day 10; 8 mg. • Day 11; 9 mg. • Days 12, 13, and 14; 10 mg. • Day 15 until EOT; 20 mg.
The Safety Set (SAF) included all randomized subjects who received at least one dose of study treatment. Subjects were analyzed based on actual treatment taken, not randomized treatment.

[2] = system: normal appearing white matter (NAWM) of MS patients; test: Phase III OPTIMUM study, myelination estimated from standardized T1/T2 MRI; format: in vivo, human
Excerpt: The impact of treatment on myelination changes in normal appearing white matter (NAWM) which sustains damage early in the MS disease course was compared
Myelination was estimated from T1 and T2-weighted magnetic resonance images collected at baseline, week 60 and week 108 in 427 patients treated with ponesimod and 428 with teriflunomide. Standardized T1/T2 was used to quantify myelination in non-lesional corpus callosum, cingulum, and remaining NAWM. Average myelination change (ΔM) from baseline at weeks 60 (w60) and 108 (w108) were compared across treatment arms using two-sided two sample t-tests, all p-values nominal.

[3] = Safety Set, ponesimod 20 mg, teriflunomide 14 mg
[4] = ponesimod 20 mg, teriflunomide 14 mg

CCC/N=C1\S/C(=C\c2ccc(OC[C@H](O)CO)c(Cl)c2)C(=O)N1c1ccccc1C [ponesimod, (R)-5-[3-chloro-4-(2,3-dihydroxy-propoxy)-benz[Z]ylidene]-2-([Z]-propylimino)-3-o-tolyl-thiazolidin-4-one]
MBP expression (primary mouse OPCs; 300 nM): significant increase | O4 expression (primary mouse OPCs; 300 nM): did not show significantly increased O4 expression | MBP expression (primary mouse OPCs; 1000 nM): did not show significantly increased MBP expression | O4 expression (primary mouse OPCs; 1000 nM): marginally increased | OPC differentiation (staining for O4 and MBP) (primary mouse OPCs; high concentrations 300 nM-1000 nM): Enhanced OPC differentiation | Fatigue Symptoms and Impacts Questionnaire-Relapsing Multiple Sclerosis (MS patients): difference | active lesions/year (MS patients): reduction | annualized relapse rate (MS patients): greater reduction | brain volume loss (MS patients): lower | disability accumulation risk estimates (MS patients): reduction | 2nd or higher degree AV block ([1]; Day 1, first dose): No 2nd or higher degree AV block | ECG HR effect: nadir ([1]; Day 1, first dose): 2 hours post-dose | subjects meeting discharge criteria at 4 hours post-dose ([1]; Day 1, first dose): ca. 99% | subjects with asymptomatic post-dose HR≤40 bpm ([1]; Day 1, all with pre-treatment HR<55 bpm): 3 | AEs leading to premature discontinuation of study drug, SOC Reproductive system and breast disorders [1, 3]: 0 n | AEs leading to premature discontinuation of study drug, SOC Surgical and medical procedures [1, 3]: 0 n | Premature treatment discontinuation: Death [1, 3]: 0 n | Subject with at least one AE leading to study drug discontinuation [1, 3]: 8.7% | Subject with at least one Fatal AE [1, 3]: 0 n | Subject with at least one Serious AE [1, 3]: 8.7% | Subject with at least one treatment-emergent AE [1, 3]: 88.8% | Treatment-emergent AESI: Hepatobiliary disorders/Liver enzyme abnormality [1, 3]: 25.7% | Treatment-emergent AESI: Hypertension [1, 3]: 10.1% | Treatment-emergent AESI: Pulmonary events [1, 3]: 8.0% | mean heart rate reduction compared to pre-dose ([1]; at 2-hours post dose, Day 1): −8.7 bpm | AESI heart rate and rhythm: Electrocardiogram QT prolonged ([1]; on Day 1, Safety Set): 0 n | AESI heart rate and rhythm: Presyncope ([1]; on Day 1, Safety Set): 0 n | AESI effect on heart rate and rhythm (including hypotension): Subjects with at least one AE ([1]; on Day 1, Safety Set, ponesimod arm (2 mg on Day 1), teriflunomide 14 mg): 2.1% | TEAE ALT increased [1, 4]: 19.5% | TEAE headache [1, 4]: 11.5% | TEAE nasopharyngitis [1, 4]: 19.3% | TEAE upper respiratory tract infection [1, 4]: 10.6% | proportion of subjects who experienced ALT increase>3×ULN [1, 4]: 17.3% | proportion of subjects who experienced ALT increase>8×ULN [1, 4]: 0.7% | subjects discontinued due to AEs or tolerability related reasons [1, 4]: 6.5% | average myelination decrease, comparison across treatment arms ([2]; all regions and both visits (w60, w108), ponesimod 20 mg vs teriflunomide 14 mg): significantly less demyelination | myelination change from baseline (standardized T1/T2) ([2]; non-lesional corpus callosum, cingulum, remaining NAWM, weeks 60 and 108, p<0.05): only the corpus callosum showed a significant decrease at w108

O=C(O)C1CN(Cc2ccc(OCc3ccc(Cl)c(Cl)c3)cc2)C1 [A97]
MBP expression (primary mouse OPCs; 1000 nM): significant increase | O4 expression (primary mouse OPCs; 1000 nM): marginally increased | O4 expression (primary mouse OPCs; 3000 nM): marginally increased | OPC differentiation (staining for O4 and MBP) (primary mouse OPCs; high concentration 1000 nM): modest increases
